# In patent publication US12084430B2, “Tricyclic urea compounds as JAK2 V617F inhibitors” (Incyte Corporation, priority 2022, dated 2024):
# Tests used:
# [1] = tested on: STAT5 (Tyr694) phosphorylation in SET-2 cells; test: STAT5 (Tyr694) phosphorylation cell based assay; settings: Homo sapiens, pSTAT5, 2 hours, read-out: SET2 IC50
# Method: Example E. STAT5 (Tyr694) Phosphorylation Cell Based Assay
# SET-2 cells was purchased from DSMZ (Germany). RPMI1640 medium, Fetal Bovine Serum and 384-white sold flat-bottom small volume plate were purchased from Thermo Fisher Scientific (Waltham, MA). Phospho-STAT5 (Tyr694) HTRF kit was purchased from Perkin Elmer (Waltham, MA).
# SET-2 cells were cultured in RPMI media with 20% FBS at 37° C. in humidified incubator supplied with 5% CO2. On the day of assay, the cells were centrifuged to remove the culture media and resuspended with prewarmed RPMI with 10% FBS. Testing compounds were prepared by serial dilution in DMSO and 50 nL/well test compounds were transferred to the 384 white low volume cell culture plate (Greiner Bio-one) by ECHO liquid handler (Labcyte). The cells were then dispensed with Multidrop (Thermo Fisher, Waltham, MA) at 10 μL/well (7×10^6 cells/mL) with 0.5% DMSO in the final assay. After the treated cells were incubated for 2 hours at 37° C./5% CO2 incubator, 4 μL/well supplemented lysis buffer (100× blocking buffer diluted 25 fold in 4× lysis buffer, Perkin Elmer) were added and incubated at room temperature for 90 min on orbital shaker at 600 rpm. Phospho-STAT5 Cryptate antibody and Phospho-STAT5 d2 antibody (1:1 vol/vol) were premixed and diluted 20 fold with in the detection buffer (Perkin Elmer). 4 μL of the premixed antibody solution were added to each well followed with 24 hours incubation at room temperature on orbital shaker at 600 rpm. The product activity was determined by measuring the fluorescence at 620 nm and 665 nm on Pherastar microplate reader (BMG Labtech). A ratio is calculated (665/620) for each well. Wells with DMSO only served as the positive controls and wells containing high concentration of control compound were used as negative controls. IC50 determination was performed by fitting the curve of percent control activity versus the log of the compound concentration using the GraphPad Prism 7.0 software.
# [2] = In vitro intrinsic clearance; type: in vitro ADME; settings: human liver microsomes, 1 μM
# Method: Example G. In Vitro Intrinsic Clearance Protocol
# For in vitro metabolic stability experiments, test compounds were incubated with human liver microsomes at 37° C. The incubation mixture contained test compounds (1 μM), NADPH (2 mM), and human liver microsomes (0.5 mg protein/mL) in 100 mM phosphate buffer (pH 7.4). The mixture was pre-incubated for 2 min at 37° C. before the addition of NADPH. Reactions were commenced upon the addition of NADPH and quenched with ice-cold methanol at 0, 10, 20, and 30 min. Terminated incubation mixtures were analyzed using LC-MS/MS system. The analytical system consisted of a Shimadzu LC-30AD binary pump system and SIL-30AC autosampler (Shimadzu Scientific Instruments, Columbia, MD) coupled with a Sciex Triple Quad 6500+ mass spectrometer from Applied Biosystems (Foster City, CA). […] Mobile phase A consisted of 0.1% formic acid in water, and mobile phase B consisted of 0.1% formic acid in acetonitrile. The total LC-MS/MS runtime was 2.75 minutes with a flow rate of 0.75 mL/min. Peak area integrations and peak area ratio calculations were performed using Analyst software (version 1.6.3) from Applied Biosystems.
# The in vitro intrinsic clearance, CLint, in vitro, was calculated from the t1/2 of test compound disappearance as CLint, in vitro=(0.693/t1/2)×(1/Cprotein), where Cprotein is the protein concentration during the incubation, and t1/2 was determined by the slope (k) of the log-linear regression analysis of the concentration versus time profiles; thus, t1/2=ln 2/k. The CLint, in vitro values were scaled to the in vivo values for human by using physiologically based scaling factors, hepatic microsomal protein concentrations (45 mg protein/g liver), and liver weights (21 g/kg body weight). The equation CLint=CLint, in vitro×(mg protein/g liver weight)×(g liver weight/kg body weight) was used. The in vivo hepatic clearance (CLH) was then calculated by using CLint and hepatic blood flow, Q (20 mL·min^−1·kg^−1 in humans) in the well-stirred liver model disregarding all binding from CLH=(Q×CLint)/(Q+CLint). The hepatic extraction ratio was calculated as CLH divided by Q.
# [3] = target: TRKA (Homo sapiens, UniProt P04629); test: TRKA enzymatic assay; type: biochemical; settings: 1 mM ATP
# TRKA (Homo sapiens, UniProt P04629), sequence (P04629 33-796, species assumed): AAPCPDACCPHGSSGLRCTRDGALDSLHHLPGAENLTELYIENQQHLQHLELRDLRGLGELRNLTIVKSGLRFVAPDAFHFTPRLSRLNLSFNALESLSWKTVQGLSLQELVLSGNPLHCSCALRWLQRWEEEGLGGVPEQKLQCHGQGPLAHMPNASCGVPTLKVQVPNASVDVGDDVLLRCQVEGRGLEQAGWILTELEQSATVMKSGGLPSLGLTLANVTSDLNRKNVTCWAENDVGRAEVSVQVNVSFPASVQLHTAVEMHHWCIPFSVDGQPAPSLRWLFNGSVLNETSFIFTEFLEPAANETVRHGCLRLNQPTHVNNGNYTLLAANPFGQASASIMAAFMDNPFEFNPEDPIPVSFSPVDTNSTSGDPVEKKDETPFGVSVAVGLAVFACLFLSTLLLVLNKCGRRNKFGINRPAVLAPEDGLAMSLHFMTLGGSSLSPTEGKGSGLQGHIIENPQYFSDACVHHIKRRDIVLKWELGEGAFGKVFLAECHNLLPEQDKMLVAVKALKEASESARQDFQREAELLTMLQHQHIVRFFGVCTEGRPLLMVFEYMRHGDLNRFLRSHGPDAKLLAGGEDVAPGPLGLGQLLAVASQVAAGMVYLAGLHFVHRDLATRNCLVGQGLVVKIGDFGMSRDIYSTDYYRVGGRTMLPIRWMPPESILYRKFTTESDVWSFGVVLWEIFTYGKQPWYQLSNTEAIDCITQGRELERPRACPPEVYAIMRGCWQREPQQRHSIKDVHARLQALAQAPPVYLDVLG
# Method: (§1) Example I. TRKA Enzymatic Assay
# (§2) The kinase assays were carried out at 24° C. temperature in assay buffer (HEPES 50 mM, pH 7.0, NaN3 0.02%, BSA 0.01%, Orthovanadate 0.1 mM, DTT 1 mM, MgCl2 10 mM) in a final volume of 10 μL. Testing compounds were prepared by serial dilution in DMSO and transferred to the plate wells by ECHO liquid handler (Labcyte) with 0.5% DMSO in the final assay. […]. Reactions were initiated by the addition of 5 μL ATP in assay buffer. The final 10 μL kinase reaction consists of 0.58 nM TRKA, 1 mM ATP, 500 nM TK Substrate-biotin and SEB reagent 62.5 nM in assay buffer. […] After 60 minutes incubation at room temperature, the product activity was determined by measuring the fluorescence at 620 nm and 665 nm on Pherastar microplate reader (BMG Labtech). A ratio is calculated (665/620 nm) for each well. Wells with DMSO only were served as the positive controls and wells containing no ATP were used as negative controls. IC50 determination was performed by fitting the curve of percent control activity versus the log of the compound concentration using the Gene data.
# [4] = tested on: TRKA; test: TRKA enzymatic assay; type: biochemical
# Method: as §1, §2
# [5] = tested on: FLT3; test: FLT3 enzymatic assay; type: biochemical
# Method: Example C. FLT3 Enzymatic Assay
# (§3) The kinase assays were carried out at room temperature in assay buffer (HEPES 50 mM, pH 7.0, NaN3 0.02%, BSA 0.01%, Orthovanadate 0.1 mM, DTT 1 mM, MgCl2 10 mM) in a final volume of 10 μL. Testing compounds were prepared by serial dilution in DMSO and transferred to the plate wells by ECHO liquid handler (Labcyte) with 0.5% DMSO in the final assay. […]. Reactions were initiated by the addition of 5 μL ATP in assay buffer. The final 10 μL kinase reaction consists of 0.011 nM FLT3, 1 mM ATP, 500 nM TK Substrate-biotin and SEB reagent 62.5 nM in assay buffer. […] The plates were then sealed and centrifuged at 1800 rpm for 2 minutes. After 60 minutes incubation at room temperature, the product activity was determined by measuring the fluorescence at 620 nm and 665 nm on Pherastar microplate reader (BMG Labtech). A ratio is calculated (665/620 nm) for each well. Wells with DMSO only were served as the positive controls and wells containing no ATP were used as negative controls. IC50 determination was performed by fitting the curve of percent control activity versus the log of the compound concentration using the GraphPad Prism 7.0 software.
# [6] = tested on: KIT; test: KIT enzymatic assay; type: biochemical
# Method: Example D. KIT Enzymatic Assay
# as §3, with “0.12” for “0.011”, “KIT,” for “FLT3,”
IC50 [1] [nM],h-IntCL [2],IC50 [3] [nM],SMILES,Selectivity TRKA/JH2 V617F [4],Selectivity FLT3/JH2 V617F [5],Selectivity KIT/JH2 V617F [6]
≤ 300,‡ ‡ ‡ (h-IntCL of >1 L/h/kg),–,"COc1ccc(-c2c(-c3cnn(Cc4ccncc4)c3)[nH]c3ncc4c(c23)n(C2CCCC2)c(=O)n4C)cc1 [Comparative Example D, reference compound]",–,–,–
≤ 300,‡ ‡ ‡ (h-IntCL of >1 L/h/kg),< 25,"Cn1cc(-c2[nH]c3ncc4c(c3c2-c2ccc3c(cnn3C)c2)n([C@H]2CC[C@@H](CC#N)CC2)c(=O)n4C)cn1 [C, reference compound]",* (selectivity of ≤500-fold),* (selectivity of ≤500-fold),* (selectivity of ≤500-fold)
